Experimental data as given in ChEMBL document CHEMBL5724696, “Autophagy assay results for EUbOPEN Chemogenomics Library” (2024).
“And” between values parts separate entries of the source, which are not always exact repeats. Identical values can stand only once.

Legend:
Type in all cases: functional, Homo sapiens
TERT-RPE1 = test: (§1) Here: values are normalized to the negative (DMSO; defined as 0% autophagy induction) and positive (250nM Torin1; mTOR inhibitor; defined as maximal inducer of autophagy = 100%) control compounds and represented as % of autophagy induction. […] The impact of autophagy induction on cells is complex and depends on the affected target. As such, the magnitude of a phenotype may not be equally mirrored in the %-value of autophagy induction and vice versa. The dynamics of the induction may indicate the mode of activation: e.g. activation via phosphorylation or a signaling cascade may occur fast, while activation via transcription factors may take considerably longer. […] Of note, treatment concentrations may be sub-optimal for specific compounds, leading to false negative annotations.; settings: Culturing Media DMEM/F12 (1:1), 1 % Penicillin/Streptomycin, 10% Fetal bovin serum Add-On: No, Screening Media Control DMEM/F12 (1:1), Screening Media Samples DMEM/F12 (1:1)
U2OS [1] = test: as §1; settings: Culturing Media DMEM, 1 % Penicillin/Streptomycin, 10% Fetal bovin serum Add-On: No, Screening Media Control DMEM, Screening Media Samples DMEM
U2OS [2] = test: as §1; settings: Culturing Media DMEM, 1 % Penicillin/Streptomycin, 10% Fetal bovin serum Add-On: No, Screening Media Control DMEM, Screening Media Samples DMEM; remark: listed apart in the source
[3] = Compound Concentration 0.5 uM, Timepoint 12 hours, 12 h, 0.5 µM
[4] = Compound Concentration 0.5 uM, Timepoint 24 hours, 24 h, 0.5 µM
[5] = Compound Concentration 0.5 uM, Timepoint 36 hours, 36 h, 0.5 µM
[6] = Compound Concentration 0.5 uM, Timepoint 60 hours, 60 h, 0.5 µM
[7] = Compound Concentration 2 uM, Timepoint 12 hours, 12 h, 2 µM
[8] = Compound Concentration 2 uM, Timepoint 24 hours, 24 h, 2 µM
[9] = Compound Concentration 2 uM, Timepoint 36 hours, 36 h, 2 µM
[10] = Compound Concentration 2 uM, Timepoint 60 hours, 60 h, 2 µM
[11] = Compound Concentration 10 uM, Timepoint 12 hours, 12 h, 10 µM
[12] = Compound Concentration 10 uM, Timepoint 24 hours, 24 h, 10 µM
[13] = Compound Concentration 10 uM, Timepoint 36 hours, 36 h, 10 µM
[14] = Compound Concentration 10 uM, Timepoint 60 hours, 60 h, 10 µM
[15] = Compound Concentration 0.5 uM, Timepoint 12 hours
[16] = Compound Concentration 0.5 uM, Timepoint 24 hours
[17] = Compound Concentration 0.5 uM, Timepoint 36 hours
[18] = Compound Concentration 0.5 uM, Timepoint 60 hours
[19] = Compound Concentration 2 uM, Timepoint 12 hours
[20] = Compound Concentration 2 uM, Timepoint 24 hours
[21] = Compound Concentration 2 uM, Timepoint 36 hours
[22] = Compound Concentration 2 uM, Timepoint 60 hours
[23] = Compound Concentration 10 uM, Timepoint 12 hours
[24] = Compound Concentration 10 uM, Timepoint 24 hours
[25] = Compound Concentration 10 uM, Timepoint 36 hours
[26] = Compound Concentration 10 uM, Timepoint 60 hours

Structure (SMILES) | autophagy induction (TERT-RPE1; [3]) | autophagy induction (TERT-RPE1; [4]) | autophagy induction (TERT-RPE1; [5]) | autophagy induction (TERT-RPE1; [6]) | autophagy induction (TERT-RPE1; [7]) | autophagy induction (TERT-RPE1; [8]) | autophagy induction (TERT-RPE1; [9]) | autophagy induction (TERT-RPE1; [10]) | autophagy induction (TERT-RPE1; [11]) | autophagy induction (TERT-RPE1; [12]) | autophagy induction (TERT-RPE1; [13]) | autophagy induction (TERT-RPE1; [14]) | autophagy induction (U2OS [1]; [15]) [%] | autophagy induction (U2OS [1]; [16]) [%] | autophagy induction (U2OS [1]; [17]) [%] | autophagy induction (U2OS [1]; [18]) [%] | autophagy induction (U2OS [1]; [19]) [%] | autophagy induction (U2OS [1]; [20]) [%] | autophagy induction (U2OS [1]; [21]) [%] | autophagy induction (U2OS [1]; [22]) [%] | also measured
CC1=C2C[C@H]3[C@@H](CC=C4C[C@@H](O)CC[C@@]43C)[C@@H]2CC[C@]12O[C@@H]1C[C@H](C)CN[C@H]1[C@H]2C [CYCLOPAMINE] | -1.95% and 0.112% | -5.579% and 2.177% | -7.952% and 1.185% | -10.1078% and 0.5911% | -0.5068% and 11.5959% | -0.6761% and 8.252% | -1.445% and 8.279% | -2.949% and 8.955% | 18.7284% and 8.103% | 21.8058% and 8.836% | 27.6829% and 10.6231% | 29.1115% and 13.2783% | -10.7714 | -6.065 | -46.3072 | -1.6767 | -23.8167 | -9.227 | -62.0777 | -2.064 | autophagy induction (U2OS [1]; [23]): -31.4833%; autophagy induction (U2OS [1]; [24]): -9.078%; autophagy induction (U2OS [1]; [25]): -61.7295%; autophagy induction (U2OS [1]; [26]): -4.044%; autophagy induction (U2OS [2]; [15]): -5.379%; autophagy induction (U2OS [2]; [16]): -12.5809%; autophagy induction (U2OS [2]; [17]): -11.7869%; autophagy induction (U2OS [2]; [18]): -7.179%; autophagy induction (U2OS [2]; [19]): -12.942%; autophagy induction (U2OS [2]; [20]): -16.2845%; autophagy induction (U2OS [2]; [21]): -11.3886%; autophagy induction (U2OS [2]; [22]): -12.7281%; autophagy induction (U2OS [2]; [23]): -9.168%; autophagy induction (U2OS [2]; [24]): -9.072%; autophagy induction (U2OS [2]; [25]): -3.104%; autophagy induction (U2OS [2]; [26]): 2.518%
Cc1c(F)cccc1NC(=O)Nc1ccc(Cl)c(S(=O)(=O)[C@H]2CCCNC2)c1O [DANIRIXIN] | -1.988% and 1.2715% | -2.9066% and -1.048% | -6.399% and -2.355% | -5.802% and -6.526% | -2.5% and 0.287% | -3.213% and -0.8718% | -5.9285% and 0.3135% | -6.839% and -1.623% | 1.595% and 0.8887% | 3.736% and 2.2115% | 4.117% and 5.758% | 6.176% and 5.1403% | 3.972 | -2.873 | -59.8201 | -1.181 | -1.664 | -3.195 | -60.7356 | -1.731 | autophagy induction (U2OS [1]; [23]): -5.705%; autophagy induction (U2OS [1]; [24]): -2.005%; autophagy induction (U2OS [1]; [25]): -60.1624%; autophagy induction (U2OS [1]; [26]): -1.218%; autophagy induction (U2OS [2]; [15]): -10.8402%; autophagy induction (U2OS [2]; [16]): -17.1359%; autophagy induction (U2OS [2]; [17]): -12.7926%; autophagy induction (U2OS [2]; [18]): -5.9905%; autophagy induction (U2OS [2]; [19]): -6.206%; autophagy induction (U2OS [2]; [20]): -10.5833%; autophagy induction (U2OS [2]; [21]): -10.8283%; autophagy induction (U2OS [2]; [22]): -13.8786%; autophagy induction (U2OS [2]; [23]): -11.164%; autophagy induction (U2OS [2]; [24]): -5.925%; autophagy induction (U2OS [2]; [25]): -8.152%; autophagy induction (U2OS [2]; [26]): -8.851%
